Two molecules from patent US4699910A, “N-(3-trifluoromethyl-phenyl)-N'-propargyl-piperazine and salts thereof useful as analgesics” (Boehringer Ingelheim KG, priority 1983, dated 1987) can be followed below.

Common to all, as to format: in vivo
One assay relates to Rabbit's tooth pulp. In words: Rabbit's tooth pulp test (analgesia). The following applies: s.c. An excerpt: 3. Rabbit's tooth pulp test
Hoffmeister, F., Arzneimittelf. 16 (supplement), 1968.

The nature of a further assay: Gait test (analgesia). The following applies: sc. An excerpt: Atkinson, D. C., and Cowan, A. J., Pharm. Pharmacol. 26, 727-728 (1974)
The nature of assay [1]: Writhing test (analgesia). On the technique in general: Writhing tests count abdominal constrictions after an irritant is injected.
The mark [2] stands for this setting: po, read-out: Writhing test ED50 p.o.
Setting [3] is: sc, read-out: Writhing test ED50 s.c.

Molecules are shown by their SMILES.

By ED50 is commonly meant the dose at which the effect has come halfway, by size or by number of responders. On to `Cc1c(N(C)CS(=O)(=O)O)c(=O)n(-c2ccccc2)n1C` [Metamizole-sodium (Novalgin ®)], for which the “Rabbit's tooth pulp test EDIV” value with Rabbit's tooth pulp is given as “approx. 560”. Moreover, the ED50 in “Gait test (analgesia)” is 97 mg/kg; in assay [1] (setting [2]), 80 mg/kg; in assay [1] (setting [3]) it was 25 mg/kg.
On the same counts, the results for `C#CCN1CCN(c2cccc(C(F)(F)F)c2)CC1.Cl` [N-(3-Trifluoromethyl-phenyl)-N'-propargyl-piperazine hydrochloride] are “approx. 10”, 2.8 mg/kg, 43 mg/kg and 5.3 mg/kg.
